Measured values taken from PMC7574383 (Epigenetics, 2020).

Columns and labels:
[1] = test system: Caco-2 cell monolayer; experiment: Caco-2 permeability assay; format: in vitro ADME, human; conditions: Caco-2 monolayer, compounds at 100 μg/ml, after three hours of treatment
[2] = test system: HepG2 cells; experiment: Senescence-associated β-galactosidase assay, HepG2; format: cell-based, human; conditions: HepG2, DOXO 0.5 μM, 48 h
[3] = test system: H9c2 cells; experiment: Senescence-associated β-galactosidase assay, H9c2; format: cell-based, rat; conditions: H9c2, DOXO 0.5 μM, 48 h

Row | Permeability (%) [1] [%] | Structure (SMILES) | SA β-gal-positive cells induced [2] | SA β-gal-positive cells induced [3] [%]
1 | 82.4 | CC(C)NCC(O)COc1cccc2ccccc12 (stereo not drawn) [Propranolol] | – | –
2 | – | COc1cccc2c1C(=O)c1c(O)c3c(c(O)c1C2=O)C[C@@](O)(C(=O)CO)C[C@@H]3O[C@H]1C[C@H](N)[C@H](O)[C@H](C)O1 [DOXO, doxorubicin] | about 60% | ~35
